Measured values as given in ChEMBL document CHEMBL1201862, “PubChem BioAssay data set” (2004).
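Briefly, cells in 96-well plates were exposed to five compound concentrations for 48 h, and endpoints were estimated by linear interpolation. At the GI50, growth is halved.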 Active and inactive are the calls of the source. Cut-off read from the data, not from the text of the source: active = GI50 up to about 1.1 µM and inactive = higher.

Experiments:
Experiment in all cases: NCI anticancer screen, dose series, 48 h
HCT-116 = test system: HCT-116
DU-145 = test system: DU-145
M14 = test system: M14
CAKI-1 = test system: CAKI-1
LOX IMVI = test system: LOX IMVI
OVCAR-4 = test system: OVCAR-4
UACC-257 = test system: UACC-257
TK-10 = test system: TK-10
A498 = test system: A498
IGROV-1 = test system: IGROV-1
HOP-62 = test system: HOP-62
SK-OV-3 = test system: SK-OV-3
NCI-H226 = test system: NCI-H226
Hs-578T = test system: Hs-578T
SF-295 = test system: SF-295
Malme-3M = test system: Malme-3M
MDA-N = test system: MDA-N
OVCAR-3 = test system: OVCAR-3
OVCAR-5 = test system: OVCAR-5
NCI-H522 = test system: NCI-H522

SMILES | GI50 (HCT-116) | GI50 (DU-145) | GI50 (M14) | GI50 (CAKI-1) | GI50 (LOX IMVI) | GI50 (OVCAR-4) | GI50 (UACC-257) | GI50 (TK-10) | GI50 (A498) | GI50 (IGROV-1) | GI50 (HOP-62) | GI50 (SK-OV-3) | GI50 (NCI-H226) | GI50 (Hs-578T) | GI50 (SF-295) | GI50 (Malme-3M) | GI50 (MDA-N) | GI50 (OVCAR-3) | GI50 (OVCAR-5) | GI50 (NCI-H522)
O=C(NC1CCCCC1)c1cc2ccccc2cc1O | 18.7 µM (inactive) | 43.2 µM (inactive) | 21.9 µM (inactive) | 47 µM (inactive) | 38.8 µM (inactive) | 20.3 µM (inactive) | 36.6 µM (inactive) | 73.3 µM (inactive) | 25.4 µM (inactive) | 35.5 µM (inactive) | 35.7 µM (inactive) | 49.1 µM (inactive) | 17.3 µM (inactive) | 36.2 µM (inactive) | 29.9 µM (inactive) |  |  |  |  | 
COc1ccc(CC2C(=O)NC(C)C(=O)N(C)C3Cc4ccc(cc4)Oc4cc(ccc4O)CC(C(=O)NC(C)C(=O)NC(C)C(=O)N2C)N(C)C3=O)cc1 (stereo not given) | 0.0175 µM (active) | < 0.0001 µM (active) | 0.0027 µM (active) |  | 0.0409 µM (active) | 0.0175 µM (active) | 0.0175 µM (active) | 0.0257 µM (active) | 0.0175 µM (active) | 0.0175 µM (active) | 0.0179 µM (active) | 0.0175 µM (active) |  |  |  | 0.0175 µM (active) | < 0.0001 µM (active) |  |  | 
CC(=O)OC1COC(n2c(=S)n(-c3ccc(C)cc3)c(=O)c3ccccc32)C(OC(C)=O)C1OC(C)=O (stereo not given) | > 100 µM (inactive) |  | > 100 µM (inactive) | > 100 µM (inactive) | > 100 µM (inactive) | > 100 µM (inactive) | > 100 µM (inactive) |  | > 100 µM (inactive) | > 100 µM (inactive) | > 100 µM (inactive) | > 100 µM (inactive) | > 100 µM (inactive) |  | 85.5 µM (inactive) | > 100 µM (inactive) |  | > 100 µM (inactive) | > 100 µM (inactive) | > 100 µM (inactive)
Cc1[nH]c2ccccc2c1C1Cc2ccccc2N1C(=O)/C(Cl)=C/c1ccccc1 (stereo not given) | 36.5 µM (inactive) |  | > 100 µM (inactive) | 50.6 µM (inactive) | > 100 µM (inactive) | > 88.1 µM (inactive) | > 100 µM (inactive) | > 73.3 µM (inactive) | > 78.2 µM (inactive) | 61.1 µM (inactive) | > 100 µM (inactive) | > 100 µM (inactive) | > 69 µM (inactive) |  | > 31 µM (inactive) | > 86.3 µM (inactive) |  | > 100 µM (inactive) | > 100 µM (inactive) | > 100 µM (inactive)
CCC1CCCCN1CC(C(C)=O)C(c1ccccc1)c1c(O)c2ccccc2oc1=O (stereo not given) | > 100 µM (inactive) |  | > 100 µM (inactive) | > 100 µM (inactive) | > 100 µM (inactive) | > 100 µM (inactive) | > 100 µM (inactive) | > 100 µM (inactive) | > 100 µM (inactive) | > 100 µM (inactive) | > 100 µM (inactive) | > 100 µM (inactive) | 18 µM (inactive) |  | > 100 µM (inactive) | > 100 µM (inactive) |  | > 100 µM (inactive) | 50.7 µM (inactive) | > 100 µM (inactive)
COc1cc(/C=C2/C(=O)N(C(=O)OCC(C)C)C(Cc3cc(OC)c(OC)c(C)c3OC)C(=O)N2Cc2ccccc2)c(OC)c(C)c1OC (stereo not given) | 20.2 µM (inactive) |  | 69.3 µM (inactive) | > 100 µM (inactive) | > 100 µM (inactive) | > 100 µM (inactive) | 15.9 µM (inactive) | > 100 µM (inactive) | > 100 µM (inactive) | > 100 µM (inactive) | 54.7 µM (inactive) | > 100 µM (inactive) | 2.56 µM (inactive) |  | 62.7 µM (inactive) | > 100 µM (inactive) |  | 79.4 µM (inactive) | > 100 µM (inactive) | 5.26 µM (inactive)
CN(C)S(=O)(=O)Nc1nnc(S(N)(=O)=O)s1 | > 100 µM (inactive) | > 100 µM (inactive) | > 100 µM (inactive) | > 100 µM (inactive) |  | > 100 µM (inactive) |  | > 100 µM (inactive) | > 100 µM (inactive) | > 100 µM (inactive) | > 100 µM (inactive) | > 100 µM (inactive) | > 100 µM (inactive) | > 100 µM (inactive) | > 100 µM (inactive) | > 100 µM (inactive) |  | > 100 µM (inactive) | > 100 µM (inactive) | > 100 µM (inactive)
O=C1NC(N/N=C/c2ccccc2)=N/C1=C\c1ccco1 | 42.9 µM (inactive) | 32.9 µM (inactive) | 46.2 µM (inactive) | 37.3 µM (inactive) |  | 38.5 µM (inactive) | > 100 µM (inactive) | 31.5 µM (inactive) | > 100 µM (inactive) | 16.9 µM (inactive) | 19.8 µM (inactive) | 54.2 µM (inactive) | 35.5 µM (inactive) | 31.5 µM (inactive) | 33.1 µM (inactive) | > 100 µM (inactive) |  | 33.8 µM (inactive) | > 100 µM (inactive) | 26.1 µM (inactive)
O=C(O)c1nc2ccccc2nc1Nc1ccc(Cl)c(Cl)c1 | 22.5 µM (inactive) | 36.4 µM (inactive) | 24.5 µM (inactive) | 33 µM (inactive) | 28.8 µM (inactive) |  | 31.8 µM (inactive) | 42.9 µM (inactive) | 13.1 µM (inactive) | 20.5 µM (inactive) | 16.1 µM (inactive) | 28.3 µM (inactive) | 43.4 µM (inactive) |  | 17.3 µM (inactive) | 18.4 µM (inactive) | 24.9 µM (inactive) | 11.5 µM (inactive) | 39.6 µM (inactive) | 17 µM (inactive)
Nc1ncnc2c1ncn2Cc1cccc(CCl)c1 | 10.4 µM (inactive) | 13.8 µM (inactive) | 14.1 µM (inactive) | 18.8 µM (inactive) | 20.1 µM (inactive) | 20.3 µM (inactive) | 14.8 µM (inactive) | 17 µM (inactive) | 15.2 µM (inactive) | 16.3 µM (inactive) | 12.7 µM (inactive) |  | 16 µM (inactive) | 22.8 µM (inactive) | 15.9 µM (inactive) | 17.9 µM (inactive) |  | 14.1 µM (inactive) | 14.5 µM (inactive) | 15.1 µM (inactive)
COC(=O)C12C(=O)CC3CCC1C32C(=O)OC (stereo not given) | > 100 µM (inactive) | > 100 µM (inactive) | > 100 µM (inactive) | > 100 µM (inactive) | > 100 µM (inactive) | > 100 µM (inactive) | > 100 µM (inactive) | > 100 µM (inactive) |  | > 100 µM (inactive) | > 100 µM (inactive) | > 100 µM (inactive) | > 100 µM (inactive) |  | > 100 µM (inactive) | > 100 µM (inactive) | > 100 µM (inactive) | > 100 µM (inactive) | > 100 µM (inactive) | > 100 µM (inactive)
Cc1cc(N(CCC#N)S(=O)(=O)c2ccccc2)ccc1C=O | > 100 µM (inactive) |  | > 100 µM (inactive) | > 100 µM (inactive) | > 100 µM (inactive) | > 100 µM (inactive) | > 100 µM (inactive) |  | > 100 µM (inactive) | > 100 µM (inactive) | > 100 µM (inactive) | > 100 µM (inactive) | > 100 µM (inactive) |  | > 100 µM (inactive) | > 100 µM (inactive) |  | > 100 µM (inactive) | > 100 µM (inactive) | > 100 µM (inactive)
